The text below walks through data of US10988466B2, “Heterocyclic derivatives useful as SHP2 inhibitors” (Jacobio Pharmaceuticals Co., Ltd., priority 2017, dated 2021).

Each structure is given as a SMILES string. Where two headings read alike, the source gives them in different places.

What is called IC50 is the concentration at which inhibition is half-maximal. As a reminder, the inhibition is the share of the control response that was lost under treatment.

In assay [1] the test system is MV-4-11. Nature of the assay: Cell proliferation assay (MTS/PMS). Type of assay: cell-based. Particulars: Homo sapiens, MV4-11.
The target of assay [2] is T1, SHP2 (Homo sapiens, UniProt Q06124).
T1 sequence (Q06124 1-593): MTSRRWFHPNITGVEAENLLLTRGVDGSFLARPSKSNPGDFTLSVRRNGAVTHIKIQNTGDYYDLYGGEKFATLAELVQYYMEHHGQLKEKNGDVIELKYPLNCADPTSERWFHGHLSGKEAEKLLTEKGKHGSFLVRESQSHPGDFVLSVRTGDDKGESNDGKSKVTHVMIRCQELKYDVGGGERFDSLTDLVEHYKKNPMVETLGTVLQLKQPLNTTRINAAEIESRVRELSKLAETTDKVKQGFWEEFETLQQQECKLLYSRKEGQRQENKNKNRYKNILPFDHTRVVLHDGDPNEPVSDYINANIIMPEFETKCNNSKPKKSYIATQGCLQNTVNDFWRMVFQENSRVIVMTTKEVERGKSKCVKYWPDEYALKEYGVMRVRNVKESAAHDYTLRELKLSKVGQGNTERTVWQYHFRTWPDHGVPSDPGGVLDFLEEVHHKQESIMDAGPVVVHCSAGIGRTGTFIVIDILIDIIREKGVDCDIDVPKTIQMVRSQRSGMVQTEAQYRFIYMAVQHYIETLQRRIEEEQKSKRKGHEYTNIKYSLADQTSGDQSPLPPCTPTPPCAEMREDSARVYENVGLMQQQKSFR
Nature of the assay: Phosphatase assays (IC50), DiFMUP substrate.

For assay [3], the target named is T1, SHP2. Nature of the assay: biochemical. Conditions: read-out: SHP2 inhibition (%)@0.1 μM.

As for `Nc1nc(N2CCC3(CC2)Cc2ccccc2[C@H]3N)cnc1Sc1ccnc(N)c1Cl` [Example 2, (S)-1′-(6-amino-5-((2-amino-3-chloropyridin-4-yl)thio)pyrazin-2-yl)-1,3-dihydrospiro[indene-2,4′-piperidin]-1-amine], the IC50 in assay [1] came to 2.7 nM; in assay [2] (SHP2 0.5 nM activated with dPEG8 peptide, DiFMUP 12 μM, 30 min), 4 nM. For the same molecule, in assay [3], the inhibition at 0.1 µM turned out to be 75%.
On to `COc1ccc2c(c1)[C@@H](N)C1(CCN(c3cnc(Sc4ccnc(N)c4Cl)c(N)n3)CC1)C2` [Example 5, (S)-1′-(6-amino-5-((2-amino-3-chloropyridin-4-yl)thio)pyrazin-2-yl)-6-methoxy-1,3-dihydro spiro[indene-2,4′-piperidin]-1-amine], for which the values for the IC50 in assay [1] and in assay [2] were 4.8 nM and 6 nM, respectively. For the same molecule, the inhibition at 0.1 µM in assay [3] is 84%.
Consider `Nc1nc(N2CCC3(CC2)Cc2sc(Cl)nc2[C@H]3N)cnc1Sc1ccnc(N)c1Cl` [Example 44, (S)-1′-(6-amino-5-((2-amino-3-chloropyridin-4-yl)thio)pyrazin-2-yl)-2-chloro-4,6-dihydro-spiro[cyclopenta[d]thiazole-5,4′-piperidin]-4-amine], for which the IC50 in assay [1] (MV-4-11 cell proliferation, MTS/PMS readout at day 8, compounds added 24 hours after plating, read-out: IC50) was determined as 7.4 nM; in assay [2], 4 nM. The inhibition at 0.1 µM in assay [3] was 88%.
